In patent US9120749B2, “Quinoline derivatives and MELK inhibitors containing the same” (ONCOTHERAPY SCIENCE, INC., priority 2010, dated 2015):
Counter-ions that a name gives are not always drawn.

Legend:
T47D cells = test: Cell-based assay: anti-proliferative activity, Cell Counting Kit-8, 72 hours (T47D); settings: Homo sapiens, T47D, 72 h
Outline: (§1)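 Cellular growth is read by CCK-8 colorimetric kit 72 h after inhibitor addition to seeded cells, and IC50 values are derived from the resulting data; MELK protein levels in these lines are checked beforehand by immunoblotting whole crude lysate.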

A549 cells = test: Cell-based assay: anti-proliferative activity, Cell Counting Kit-8, 72 hours (A549); settings: Homo sapiens, A549, 72 h, 72 hours
Outline: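 A549 cells seeded in 96-well plates and exposed to candidate inhibitors for 72 hours. Growth measured with Cell Counting Kit-8; IC50 values calculated from the dose response.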

DU4475 cells = test: Cell-based assay: anti-proliferative activity, Cell Counting Kit-8, 72 hours (DU4475); settings: Homo sapiens, DU-4475, 72 h
HT-1197 cells = test: Cell-based assay: anti-proliferative activity, Cell Counting Kit-8, 72 hours (HT-1197, negative control without MELK expression); settings: Homo sapiens, HT1197, 72 h, HT1197 cells (negative control, no MELK expression), 72 hours
Outline: as §1

MELK = MELK (Homo sapiens, UniProt Q14680); test: Kinase assay: MELK activity, phosphorylation of FITC-labeled histone H3 peptide measured by IMAP fluorescence polarization; format: biochemical; settings: read-out: IC50 (μM) (kinase assay)
MELK, sequence (Q14680 whole entry, looked up): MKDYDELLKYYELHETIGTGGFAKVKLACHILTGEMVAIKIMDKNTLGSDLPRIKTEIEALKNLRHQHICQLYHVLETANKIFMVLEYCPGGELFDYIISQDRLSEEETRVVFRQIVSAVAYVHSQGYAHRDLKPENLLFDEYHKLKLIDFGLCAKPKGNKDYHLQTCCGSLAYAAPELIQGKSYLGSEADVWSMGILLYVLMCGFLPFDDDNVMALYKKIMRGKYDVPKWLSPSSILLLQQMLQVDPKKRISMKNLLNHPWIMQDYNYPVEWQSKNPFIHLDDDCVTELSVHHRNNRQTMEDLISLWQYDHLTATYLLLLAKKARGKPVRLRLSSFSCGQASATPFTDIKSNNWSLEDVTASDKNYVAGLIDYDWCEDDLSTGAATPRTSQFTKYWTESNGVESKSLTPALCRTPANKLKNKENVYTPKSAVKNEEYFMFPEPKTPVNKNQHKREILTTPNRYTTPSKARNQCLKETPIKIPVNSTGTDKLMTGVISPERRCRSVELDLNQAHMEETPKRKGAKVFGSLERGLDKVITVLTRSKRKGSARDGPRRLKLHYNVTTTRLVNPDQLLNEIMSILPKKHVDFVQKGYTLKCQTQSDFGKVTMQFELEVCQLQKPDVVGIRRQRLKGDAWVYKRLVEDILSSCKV
Outline: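 FP readout: FITC-histone H3 peptide phosphorylation, read 0.5 h (RT) after stopping with 3x volume of IMAP progressive binding solution. Final DMSO 1%.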

Row | Compound | IC50 (T47D cells) [µM] | IC50 (A549 cells) [µM] | IC50 (DU4475 cells) [µM] | IC50 (HT-1197 cells) [µM] | IC50 (MELK) [µM]
1 | NCCOc1ccc(Nc2c(C(=O)C3CC3)cnc3ccc(-c4cc(Cl)c(O)c(Cl)c4)cc23)cn1 [Example 723, (4-(6-(2-Aminoethoxy)pyridin-3-ylamino)-6-(3,5-dichloro-4-hydroxyphenyl)quinolin-3-yl)(cyclopropyl)methanone] | 0.099 | 0.23 | 0.028 | 2.1 | 0.0019
2 | COc1cc(-c2ccc3ncc(C(=O)C4CC4)c(Nc4cccc(CCN(C)C)c4)c3c2)cc(Cl)c1O [Example 692, (6-(3-chloro-4-hydroxy-5-methoxyphenyl)-4-(3-(2-(dimethylamino)ethyl)phenylamino)quinolin-3-yl)(cyclopropyl)methanone] | 1 | 0.37 | 0.3 | 5.9 | 0.0056
3 | COc1cc(-c2ccc3ncc(C(C)=O)c(N[C@H]4CC[C@H](CCN(C)C)CC4)c3c2)cc(Cl)c1O [Example 738] | 0.51 | 0.34 | 2.1 | 7.8 | 0.0026
4 | NCCOc1ccc(Nc2c(C(=O)C3CC3)cnc3ccc(-c4cc(F)c(O)c(Cl)c4)cc23)cn1 [Example 724, (4-(6-(2-Aminoethoxy)pyridin-3-ylamino)-6-(3-chloro-5-fluoro-4-hydroxyphenyl)quinolin-3-yl)(cyclopropyl)methanone] | 0.07 | 0.23 | 0.035 | 2.8 | 0.0055
5 | CN(C)C[C@]1(O)CC[C@@H](Nc2c(C(=O)C3CC3)cnc3ccc(-c4cc(F)c(O)c(Cl)c4)cc23)CC1 [Example 673, (6-(3-chloro-5-fluoro-4-hydroxyphenyl)-4-((cis-4-((dimethylamino)methyl)-4-hydroxycyclohexyl)amino)quinolin-3-yl)(cyclopropyl)methanone] | 0.16 | 0.16 | 0.089 | 1.4 | 0.0042
6 | COc1cc(-c2ccc3ncc(C(=O)C4CC4)c(N[C@H]4CC[C@H](CN5CCC(N(C)C)C5)CC4)c3c2)cc(Cl)c1O (stereo partly drawn) [Example 668] | 1 | 0.56 | 1.4 | 2.6 | 0.0039
7 | COc1cc(-c2ccc3ncc(C(=O)C(C)C)c(Nc4ccc(N5CCNCC5)nc4)c3c2)cc(Cl)c1O [Example 680, 1-(6-(3-chloro-4-hydroxy-5-methoxyphenyl)-4-(6-(piperazin-1-yl)pyridin-3-ylamino)quinolin-3-yl)-2-methylpropan-1-one] | 0.59 | 1.3 | 1 | 2.4 | 0.011
8 | CC(C)C(=O)c1cnc2ccc(-c3cc(F)c(O)c(Cl)c3)cc2c1Nc1ccc(N2CCNCC2)nc1 [Example 674, 1-(6-(3-chloro-5-fluoro-4-hydroxyphenyl)-4-(6-(piperazin-1-yl)pyridin-3-ylamino)quinolin-3-yl)-2-methylpropan-1-one] | 0.11 | 0.46 | 0.15 | 2.4 | 0.0069
9 | COc1cc(-c2ccc3ncc(C(C)=O)c(Nc4ccc(N5CCCC(N)C5)nc4)c3c2)cc(Cl)c1O (stereo not drawn) [Example 688, 1-(4-(6-(3-aminopiperidin-1-yl)pyridin-3-ylamino)-6-(3-chloro-4-hydroxy-5-methoxyphenyl)quinolin-3-yl)ethanone] | 0.056 | 0.23 | 0.11 | 1.7 | 0.0032
10 | O=C(c1cnc2ccc(-c3cc(F)c(O)c(Cl)c3)cc2c1Nc1ccc(NCCO)nc1)C1CC1 [Example 679, (6-(3-chloro-5-fluoro-4-hydroxyphenyl)-4-(6-(2-hydroxyethylamino)pyridin-3-ylamino)quinolin-3-yl)(cyclopropyl)methanone] | 0.23 | 1.3 | 0.12 | 3.7 | 0.03
11 | COc1cc(-c2ccc3ncc(C(C)=O)c(N[C@H]4CC[C@H](CN5CCCC5)CC4)c3c2)cc(Cl)c1O [Example 734] | 0.51 | 0.25 | 0.36 | 6.4 | 0.0016
12 | N[C@H]1CC[C@H](n2cc(Nc3c(C(=O)C4CC4)cnc4ccc(-c5cc(Cl)c(O)c(Cl)c5)cc34)cn2)CC1 [Example 706, (4-((1-(trans-4-aminocyclohexyl)-1H-pyrazol-4-yl)amino)-6-(3,5-dichloro-4-hydroxyphenyl)quinolin-3-yl)(cyclopropyl)methanone dihydrochloride] | 0.042 | 0.59 | 0.02 | 7.9 | 0.0011
13 | O=C(c1cnc2ccc(-c3cc(Cl)c(O)c(Cl)c3)cc2c1Nc1ccc(NCCO)nc1)C1CC1 [Example 678, cyclopropyl(6-(3,5-dichloro-4-hydroxyphenyl)-4-(6-(2-hydroxyethylamino)pyridin-3-ylamino)quinolin-3-yl)methanone] | 0.41 | 1.2 | 0.11 | 5.1 | 0.011
14 | CCC(=O)c1cnc2ccc(-c3cc(Cl)c(O)c(OC)c3)cc2c1N[C@H]1CC[C@H](CN(C)C)CC1 [Example 713] | 0.2 | 0.18 | 0.15 | 4.9 | 0.0024
15 | CN(CCO)C[C@H]1CC[C@H](Nc2c(C(=O)C3CC3)cnc3ccc(-c4cc(F)c(O)c(Cl)c4)cc23)CC1 [Example 632, (6-(3-chloro-5-fluoro-4-hydroxyphenyl)-4-((trans-4-(((2-hydroxyethyl)(methyl)amino)methyl)cyclohexyl)amino)quinolin-3-yl)(cyclopropyl)methanone] | 0.069 | 0.1 | 0.069 | 0.72 | 0.0031
16 | CN(C)CCc1cccc(Nc2c(C(=O)C3CC3)cnc3ccc(-c4cc(Cl)c(O)c(Cl)c4)cc23)c1 [Example 698, Cyclopropyl{6-(3,5-dichloro-4-hydroxyphenyl)-4-[3-(2-(dimethylamino)ethyl)phenylamino]quinolin-3-yl}methanone] | 0.3 | 0.05 | 0.04 | 10 | 0.0024
17 | O=C(c1cnc2ccc(-c3cc(F)c(O)c(Cl)c3)cc2c1NC1CCNCC1)C1CC1 [Example 719, (6-(3-chloro-5-fluoro-4-hydroxyphenyl)-4-(piperidin-4-ylamino)quinolin-3-yl)(cyclopropyl)methanone] | 0.32 | 0.69 | 0.17 | 10 | 0.0092
18 | CC(=O)c1cnc2ccc(-c3cc(Cl)c(O)c(Cl)c3)cc2c1Nc1ccc(CN2CCN(C)CC2)cc1 [Example 654, 1-(6-(3,5-dichloro-4-hydroxyphenyl)-4-(4-((4-methylpiperazin-1-yl)methyl)phenylamino)quinolin-3-yl)ethanone] | 0.091 | 0.19 | 0.11 | 8.7 | 0.0082
19 | COc1cc(-c2ccc3ncc(C(=O)C4CC4)c(Nc4cnc(N5CCCC(N)C5)nc4)c3c2)cc(Cl)c1O (stereo not drawn) [Example 644, (4-(2-(3-aminopiperidin-1-yl)pyrimidin-5-ylamino)-6-(3-chloro-4-hydroxy-5-methoxyphenyl)quinolin-3-yl)(cyclopropyl)methanone] | 0.047 | 0.23 | 0.068 | 2.4 | 0.0028
20 | O=C(c1cnc2ccc(-c3cc(Cl)c(O)c(Cl)c3)cc2c1NC1CCC(N2CC[C@@H](F)C2)CC1)C1CC1 (stereo partly drawn) [Example 643, (R)-cyclopropyl(6-(3,5-dichloro-4-hydroxyphenyl)-4-(4-(3-fluoropyrrolidin-1-yl)cyclohexylamino)quinolin-3-yl)methanone] | 0.37 | 0.34 | 0.14 | 2.4 | 0.004
21 | O=C(c1cnc2ccc(-c3cc(Cl)c(O)c(Cl)c3)cc2c1NC1CCNCC1)C1CC1 [Example 726, cyclopropyl(6-(3,5-dichloro-4-hydroxypheny)-4-(piperidin-4-ylamino)quinolin-3-yl)methanone] | 0.56 | 0.52 | 0.14 | 2.4 | 0.0057
22 | COC1CCN(C2CCC(Nc3c(C(=O)C4CC4)cnc4ccc(-c5cc(Cl)c(O)c(Cl)c5)cc34)CC2)C1 (stereo not drawn) [Example 661, cyclopropyl(6-(3,5-dichloro-4-hydroxyphenyl)-4-(4-(3-methoxypyrrolidin-1-yl)cyclohexylamino)quinolin-3-yl)methanone] | 0.25 | 0.17 | 0.1 | 1.4 | 0.0018
23 | CC(C)C(=O)c1cnc2ccc(-c3cc(Cl)c(O)c(Cl)c3)cc2c1Nc1ccc(CN(C)C)cc1 [Example 641, 1-(6-(3,5-dichloro-4-hydroxyphenyl)-4-(4-((dimethylamino)methyl)phenylamino)quinolin-3-yl)-2-methylpropan-1-one] | 0.22 | 0.23 | 0.097 | 0.74 | 0.0076
24 | CCC(=O)c1cnc2ccc(-c3cc(F)c(O)c(Cl)c3)cc2c1Nc1ccc(N2CCN(C)CC2)nc1 [Example 736, 1-(6-(3-chloro-5-fluoro-4-hydroxyphenyl)-4-(6-(4-methylpiperazin-1-yl)pyridin-3-ylamino)quinolin-3-yl)propan-1-one] | 0.14 | 0.22 | 0.19 | 10 | 0.036
